Assay [1] deals with SARS-CoV-2. To be noted: dose 60 mg/kg; route po; time 4 day.
The test system of assay [2] is SARS-CoV-2. To be noted: dose 30 mg/kg; route po; time 4 day.
Assay [3] deals with SARS-CoV-2. The format is functional, organism-based. To be noted: Severe acute respiratory syndrome coronavirus 2; MA10; Pneumocyte; dose 30.0 mg/kg, route po, time 2-5 day.
The subject of assay [4] is SARS-CoV-2. The format is functional, organism-based. The following applies: Severe acute respiratory syndrome coronavirus 2; MA10; dose 30.0 mg/kg, route po, time 2-5 day.
For assay [5], the system named is SARS-CoV-2. The format is functional, organism-based. The following applies: Severe acute respiratory syndrome coronavirus 2; MA10; dose 60.0 mg/kg, route po, time 2-5 day.
Assay [6] has as its system SARS-CoV-2. The format is functional, organism-based. The following applies: Severe acute respiratory syndrome coronavirus 2; MA10; Pneumocyte; dose 60.0 mg/kg, route po, time 2-5 day.
The test system of assay [7] is SARS-CoV-2. The format is functional, organism-based. The following applies: Severe acute respiratory syndrome coronavirus 2; MA10; dose 30.0 mg/kg, route po, time 2-5 day. This is another data set of the same source.
Assay [8] relates to SARS-CoV-2. The format is functional, organism-based. To be noted: Severe acute respiratory syndrome coronavirus 2; MA10; Pneumocyte; dose 30.0 mg/kg, route po, time 2-5 day. The source holds these as a separate data set.
Assay [9] relates to SARS-CoV-2. The format is functional, organism-based. The following applies: Severe acute respiratory syndrome coronavirus 2; MA10; dose 30.0 mg/kg, route po, time 2-5 day. The source holds these as a separate data set.
Assay [10] relates to SARS-CoV-2. The format is functional, organism-based. The following applies: Severe acute respiratory syndrome coronavirus 2; MA10; dose 60.0 mg/kg, route po, time 2-5 day. The source holds these as a separate data set.
The test system of assay [11] is SARS-CoV-2. The format is functional, organism-based. The following applies: Severe acute respiratory syndrome coronavirus 2; MA10; dose 60.0 mg/kg, route po, time 2-5 day. The source holds these as a separate data set.
The test system of assay [12] is SARS-CoV-2. The format is functional, organism-based. The following applies: Severe acute respiratory syndrome coronavirus 2; MA10; dose 30.0 mg/kg, route po, time 2-5 day. The source holds these as a separate data set.
Assay [13] relates to SARS-CoV-2. The format is functional, organism-based. The following applies: Severe acute respiratory syndrome coronavirus 2; MA10; dose 30.0 mg/kg, route po, time 2-5 day. The source holds these as a separate data set.
Assay [14] relates to SARS-CoV-2. The format is functional, organism-based. The following applies: Severe acute respiratory syndrome coronavirus 2; MA10; dose 30.0 mg/kg, route po, time 5.0 day.
Assay [15] relates to SARS-CoV-2. The format is functional, organism-based. The following applies: Severe acute respiratory syndrome coronavirus 2; MA10; dose 60.0 mg/kg, route po, time 5.0 day.
Assay [16] deals with SARS-CoV-2. The format is functional, organism-based. The following applies: Severe acute respiratory syndrome coronavirus 2; MA10; dose 30.0 mg/kg, route po, time 2-5 day. This is another data set of the same source.
Assay [17] concerns SARS-CoV-2. The format is functional, organism-based. The following applies: Severe acute respiratory syndrome coronavirus 2; MA10; dose 30.0 mg/kg, route po, time 2-5 day. This is another data set of the same source.
For assay [18], the system named is SARS-CoV-2. The format is functional, organism-based. The following applies: Severe acute respiratory syndrome coronavirus 2; MA10; dose 60.0 mg/kg, route po, time 2-5 day. This is another data set of the same source.
Assay [19] has as its system SARS-CoV-2. The format is functional, organism-based. The following applies: Severe acute respiratory syndrome coronavirus 2; MA10; Pneumocyte; dose 60.0 mg/kg, route po, time 2-5 day. The source holds these as a separate data set.
Assay [20] has as its system SARS-CoV-2. The format is functional, organism-based. The following applies: Severe acute respiratory syndrome coronavirus 2; MA10; dose 60.0 mg/kg, route po, time 3-5 day.
Assay [21] concerns SARS-CoV-2. The format is functional, organism-based. To be noted: Severe acute respiratory syndrome coronavirus 2; MA10; dose 60.0 mg/kg, route po, time 2-5 day. The source holds these as a separate data set.
Assay [22] has as its system SARS-CoV-2. To be noted: dose 60 mg/kg; route po; time 5 day.
Assay [23] concerns SARS-CoV-2. The format is functional, organism-based. The following applies: Severe acute respiratory syndrome coronavirus 2; MA10; dose 60.0 mg/kg, route po, time 2-5 day. The source holds these as a separate data set.
Assay [24] deals with SARS-CoV-2. To be noted: dose 30 mg/kg; route po; time 5 day.
For assay [25], the system named is SARS-CoV-2. The format is functional, organism-based. To be noted: Severe acute respiratory syndrome coronavirus 2; MA10; dose 30.0 mg/kg, route po, time 2.0 day.
Assay [26] concerns SARS-CoV-2. The format is functional, organism-based. To be noted: Severe acute respiratory syndrome coronavirus 2; MA10; dose 30.0 mg/kg, route po, time 2-5 day. The source holds these as a separate data set.
Assay [27] concerns SARS-CoV-2. The format is functional, organism-based. To be noted: Severe acute respiratory syndrome coronavirus 2; MA10; dose 60.0 mg/kg, route po, time 2-5 day. The source holds these as a separate data set.
Assay [28] deals with SARS-CoV-2. The format is functional, organism-based. The following applies: Severe acute respiratory syndrome coronavirus 2; MA10; dose 60.0 mg/kg, route po, time 2-5 day. This is another data set of the same source.
In assay [29] the test system is SARS-CoV-2. To be noted: dose 30 mg/kg; route po; time 5 day. The source holds these as a separate data set.
Assay [30] relates to SARS-CoV-2. The format is functional, organism-based. The following applies: Severe acute respiratory syndrome coronavirus 2; MA10; dose 30.0 mg/kg, route po, time 2-5 day. This is another data set of the same source.
Assay [31] has as its system SARS-CoV-2. The format is functional, organism-based. To be noted: Severe acute respiratory syndrome coronavirus 2; MA10; dose 30.0 mg/kg, route po, time 2-5 day. This is another data set of the same source.
Assay [32] has as its system SARS-CoV-2. The format is functional, organism-based. The following applies: Severe acute respiratory syndrome coronavirus 2; MA10; dose 60.0 mg/kg, route po, time 2-5 day. This is another data set of the same source.
For assay [33], the system named is SARS-CoV-2. To be noted: dose 60 mg/kg; route po; time 2 day.
Assay [34] has as its system SARS-CoV-2. To be noted: dose 30 mg/kg; route po; time 4 day. This is another data set of the same source.
Assay [35] relates to SARS-CoV-2. The following applies: dose 60 mg/kg; route po; time 4 day. The source holds these as a separate data set.

SMILES strings stand for the structures. Active and inactive are the calls of the source. The calls are words filed in the database; no cut-off is given here.

Consider `CC(C)C(=O)OC[C@H]1O[C@@](C#N)(c2ccc3c(N)ncnn23)[C@H](OC(=O)C(C)C)[C@@H]1OC(=O)C(C)C`, for which the “log(activity)” value in the assay with SARS-CoV-2 [1] and in the assay with SARS-CoV-2 [2] was more than 2.9 in each case.
For the molecule `CCCCCCCCCCCCCCCCCCOC[C@H](COP(=O)(O)OC[C@H]1O[C@@](C#N)(c2ccc3c(N)ncnn23)[C@H](O)[C@@H]1O)OCc1ccccc1`, the result in the assay with SARS-CoV-2 [3], with SARS-CoV-2 [4], in the assay on SARS-CoV-2 [5], with SARS-CoV-2 [6], with SARS-CoV-2 [7] and in the assay on SARS-CoV-2 [8] was inactive. The outcome with SARS-CoV-2 [9], in the assay with SARS-CoV-2 [10], with SARS-CoV-2 [11], in the assay with SARS-CoV-2 [12], with SARS-CoV-2 [13] and in the assay with SARS-CoV-2 [14] was inactive. The outcome with SARS-CoV-2 [16], in the assay on SARS-CoV-2 [17], in the assay with SARS-CoV-2 [18], with SARS-CoV-2 [19], with SARS-CoV-2 [21] and with SARS-CoV-2 [23] was inactive. Further, the outcome in the assay with SARS-CoV-2 [26], in the assay with SARS-CoV-2 [27], with SARS-CoV-2 [28], in the assay with SARS-CoV-2 [30], in the assay with SARS-CoV-2 [31] and with SARS-CoV-2 [32] was inactive. Also, the result in the assay on SARS-CoV-2 [15], with SARS-CoV-2 [20] and in the assay on SARS-CoV-2 [25] was Active. The “log(activity)” value in the assay on SARS-CoV-2 [22] is given as more than 2.14; in the assay on SARS-CoV-2 [24] it was more than 2.14; with SARS-CoV-2 [29], more than 2.14; in the assay with SARS-CoV-2 [33] it was 1.52.
In the case of `CC(C)C(=O)OC[C@H]1O[C@@H](n2cc/c(=N\O)[nH]c2=O)[C@H](O)[C@@H]1O` [MOLNUPIRAVIR], the “log(activity)” value is 2.1 in the assay with SARS-CoV-2 [34], 2.6 in the assay on SARS-CoV-2 [1] and 2.9 in the assay on SARS-CoV-2 [35].

(Values after ChEMBL document CHEMBL5380858 (J Med Chem, 2023).)
